Data published in PubChem BioAssay AID1918942 (Molecular Pharmacology Branch, DTP, NCI, 2023).

Tested on: 743489-274-T-PDC complex spheroid viability
Assay: Anticancer human tumor 743489-274-T-PDC patient-derived renal cell carcinoma cell line growth inhibition
Conditions: for IC50: curve of first compound; for viability, T/C: stronger effect = lower value
Procedure, shortened: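 Multicellular complex spheroids of tumor cells with human endothelial cells (HUVEC) and mesenchymal stem cells; the LSD1 inhibitor iadademstat was combined with standard-of-care or investigational agents. Top concentration at or near clinical Cmax, half-log dilutions; final DMSO ≤0.25%.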

[1] = second compound 0.1 µM, first compound 0.0316 µM
[2] = second compound 0.1 µM, first compound 0.1 µM
[3] = second compound 0.1 µM, first compound 0.316 µM
[4] = second compound 0.1 µM, first compound 1 µM
[5] = second compound 0.1 µM, first compound 3.16 µM
[6] = second compound 0.1 µM, first compound 10 µM
[7] = second compound 0.316 µM, first compound 0.0316 µM
[8] = second compound 0.316 µM, first compound 0.1 µM
[9] = second compound 0.316 µM, first compound 0.316 µM
[10] = second compound 0.316 µM, first compound 1 µM
[11] = second compound 0.316 µM, first compound 3.16 µM
[12] = second compound 0.316 µM, first compound 10 µM
[13] = second compound 1 µM, first compound 0.0316 µM
[14] = second compound 1 µM, first compound 0.1 µM
[15] = second compound 1 µM, first compound 0.316 µM
[16] = second compound 1 µM, first compound 1 µM
[17] = second compound 1 µM, first compound 3.16 µM
[18] = second compound 1 µM, first compound 10 µM
[19] = second compound 3.16 µM, first compound 0.0316 µM
[20] = second compound 3.16 µM, first compound 0.1 µM
[21] = second compound 3.16 µM, first compound 0.316 µM
[22] = second compound 3.16 µM, first compound 1 µM
[23] = second compound 3.16 µM, first compound 3.16 µM
[24] = second compound 3.16 µM, first compound 10 µM
[25] = second compound 10 µM, first compound 0.0316 µM
[26] = second compound 10 µM, first compound 0.1 µM
[27] = second compound 10 µM, first compound 0.316 µM
[28] = second compound 10 µM, first compound 1 µM
[29] = second compound 10 µM, first compound 3.16 µM
[30] = second compound 10 µM, first compound 10 µM
[31] = second compound 0.1 µM, first compound 0.00316 µM
[32] = second compound 0.1 µM, first compound 0.01 µM
[33] = second compound 0.316 µM, first compound 0.00316 µM
[34] = second compound 0.316 µM, first compound 0.01 µM
[35] = second compound 1 µM, first compound 0.00316 µM
[36] = second compound 1 µM, first compound 0.01 µM
[37] = second compound 3.16 µM, first compound 0.00316 µM
[38] = second compound 3.16 µM, first compound 0.01 µM
[39] = second compound 10 µM, first compound 0.00316 µM
[40] = second compound 10 µM, first compound 0.01 µM
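Also: spheroids exposed to compounds for 7 days before readout.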
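For viability, T/C in this document: 100% = DMSO vehicle control wells.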

SMILES	IC50 (second compound 0.1 µM) [nM]	IC50 (second compound 0.316 µM) [nM]	IC50 (second compound 1 µM) [nM]	IC50 (second compound 3.16 µM) [nM]	IC50 (second compound 10 µM) [nM]	viability, T/C [1] [%]	viability, T/C [2] [%]	viability, T/C [3] [%]	viability, T/C [4] [%]	viability, T/C [7] [%]	viability, T/C [8] [%]	viability, T/C [9] [%]	viability, T/C [10] [%]	viability, T/C [13] [%]	viability, T/C [14] [%]	viability, T/C [15] [%]	viability, T/C [16] [%]	viability, T/C [19] [%]	viability, T/C [20] [%]	viability, T/C [21] [%]	further results
CC(C)c1c(-c2ccccc2)nc2c(C#N)c[nH]n2c1=O + NC1CC1c1ccc(-c2cccc(O)c2)cc1	> 10000	> 10000	> 10000	> 10000	> 10000	110	112	131	105	104	107	134	100	110	117	108	116	106	108	114	viability, T/C [5]: 113%; viability, T/C [6]: 109%; viability, T/C [11]: 115%; viability, T/C [12]: 102%; viability, T/C [17]: 108%; viability, T/C [18]: 114%; viability, T/C [22]: 111%; viability, T/C [23]: 105%; viability, T/C [24]: 124%; viability, T/C [25]: 130%; viability, T/C [26]: 105%; viability, T/C [27]: 116%; viability, T/C [28]: 102%; viability, T/C [29]: 106%; viability, T/C [30]: 109%
CC1COCCN1c1cc(-c2ccnn2C)c2ccnc(-c3ccn[nH]3)c2n1 (stereo not given) + NC1CC1c1ccc(-c2cccc(O)c2)cc1	448	> 1000	716	540	518	85.2	62.9	51.2	44.3	85.5	65.5	64.5	51.9	82.5	68.9	64.7	44.5	83.8	75.6	55.5	viability, T/C [31]: 109%; viability, T/C [32]: 88%; viability, T/C [33]: 111%; viability, T/C [34]: 104%; viability, T/C [35]: 98.2%; viability, T/C [36]: 103%; viability, T/C [37]: 101%; viability, T/C [38]: 90.6%; viability, T/C [22]: 41.5%; viability, T/C [39]: 90.8%; viability, T/C [40]: 98.1%; viability, T/C [25]: 80%; viability, T/C [26]: 75%; viability, T/C [27]: 53.7%; viability, T/C [28]: 43.6%
COc1ccc([C@@H](O)c2cc(-c3ncnc4cc(N5CCOCC5)ccc34)c(F)cc2Cl)nn1 + NC1CC1c1ccc(-c2cccc(O)c2)cc1	643	979	833	611	918	101	93.6	63	38.6	99.7	92.7	68.8	57.4	94.3	93	80.2	43.4	93.6	94.4	59.4	viability, T/C [5]: 31.9%; viability, T/C [6]: 15.4%; viability, T/C [11]: 24.1%; viability, T/C [12]: 32%; viability, T/C [17]: 25%; viability, T/C [18]: 16.8%; viability, T/C [22]: 41.2%; viability, T/C [23]: 27.5%; viability, T/C [24]: 17.4%; viability, T/C [25]: 99.1%; viability, T/C [26]: 111%; viability, T/C [27]: 74.3%; viability, T/C [28]: 49.5%; viability, T/C [29]: 27.1%; viability, T/C [30]: 16.6%
Nc1ncn(C2CC(O)C(CO)O2)c(=O)n1 (stereo not given) + NC1CCC(NC2CC2c2ccccc2)CC1	> 1000	> 1000	> 1000	> 1000	> 1000	110	109	105	105	107	107	98	98.4	114	92	105	105	108	95.9	94	viability, T/C [31]: 107%; viability, T/C [32]: 113%; viability, T/C [33]: 122%; viability, T/C [34]: 119%; viability, T/C [35]: 107%; viability, T/C [36]: 113%; viability, T/C [37]: 127%; viability, T/C [38]: 122%; viability, T/C [22]: 97.8%; viability, T/C [39]: 104%; viability, T/C [40]: 122%; viability, T/C [25]: 131%; viability, T/C [26]: 97.2%; viability, T/C [27]: 103%; viability, T/C [28]: 97.3%
